The test deals with T1, α4β1 integrin (Homo sapiens, UniProt P05556+P13612).
T1 construct: a cell line Jurkat, which is known to express α4β1 integrin; endogenous in cells; host or cells: Jurkat (human T cell line)
T1 sequence (P13612 34-1032): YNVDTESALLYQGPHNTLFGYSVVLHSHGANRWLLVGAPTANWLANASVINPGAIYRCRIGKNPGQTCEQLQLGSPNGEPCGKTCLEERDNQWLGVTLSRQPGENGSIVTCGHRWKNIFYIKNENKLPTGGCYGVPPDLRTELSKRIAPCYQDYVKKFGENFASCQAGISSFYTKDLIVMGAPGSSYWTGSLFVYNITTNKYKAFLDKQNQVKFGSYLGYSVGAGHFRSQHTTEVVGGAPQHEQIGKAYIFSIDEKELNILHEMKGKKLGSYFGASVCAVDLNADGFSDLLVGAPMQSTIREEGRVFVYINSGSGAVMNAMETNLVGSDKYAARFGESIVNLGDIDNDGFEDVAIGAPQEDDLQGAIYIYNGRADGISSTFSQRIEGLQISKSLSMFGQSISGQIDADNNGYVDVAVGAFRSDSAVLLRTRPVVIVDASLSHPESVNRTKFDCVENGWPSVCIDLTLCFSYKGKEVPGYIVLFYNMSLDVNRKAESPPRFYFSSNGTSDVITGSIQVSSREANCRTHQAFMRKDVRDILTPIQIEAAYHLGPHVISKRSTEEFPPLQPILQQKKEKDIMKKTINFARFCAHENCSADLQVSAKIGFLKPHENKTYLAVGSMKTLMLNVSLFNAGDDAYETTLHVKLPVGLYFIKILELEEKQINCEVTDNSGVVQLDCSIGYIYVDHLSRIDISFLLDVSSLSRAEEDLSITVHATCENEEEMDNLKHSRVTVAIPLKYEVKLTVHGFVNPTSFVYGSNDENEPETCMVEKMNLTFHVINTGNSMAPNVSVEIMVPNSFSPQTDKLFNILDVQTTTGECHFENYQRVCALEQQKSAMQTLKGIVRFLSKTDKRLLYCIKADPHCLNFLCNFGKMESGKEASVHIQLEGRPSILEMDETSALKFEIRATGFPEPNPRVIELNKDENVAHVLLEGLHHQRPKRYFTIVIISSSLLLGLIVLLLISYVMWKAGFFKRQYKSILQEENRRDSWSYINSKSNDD
T1 sequence (P05556 21-798): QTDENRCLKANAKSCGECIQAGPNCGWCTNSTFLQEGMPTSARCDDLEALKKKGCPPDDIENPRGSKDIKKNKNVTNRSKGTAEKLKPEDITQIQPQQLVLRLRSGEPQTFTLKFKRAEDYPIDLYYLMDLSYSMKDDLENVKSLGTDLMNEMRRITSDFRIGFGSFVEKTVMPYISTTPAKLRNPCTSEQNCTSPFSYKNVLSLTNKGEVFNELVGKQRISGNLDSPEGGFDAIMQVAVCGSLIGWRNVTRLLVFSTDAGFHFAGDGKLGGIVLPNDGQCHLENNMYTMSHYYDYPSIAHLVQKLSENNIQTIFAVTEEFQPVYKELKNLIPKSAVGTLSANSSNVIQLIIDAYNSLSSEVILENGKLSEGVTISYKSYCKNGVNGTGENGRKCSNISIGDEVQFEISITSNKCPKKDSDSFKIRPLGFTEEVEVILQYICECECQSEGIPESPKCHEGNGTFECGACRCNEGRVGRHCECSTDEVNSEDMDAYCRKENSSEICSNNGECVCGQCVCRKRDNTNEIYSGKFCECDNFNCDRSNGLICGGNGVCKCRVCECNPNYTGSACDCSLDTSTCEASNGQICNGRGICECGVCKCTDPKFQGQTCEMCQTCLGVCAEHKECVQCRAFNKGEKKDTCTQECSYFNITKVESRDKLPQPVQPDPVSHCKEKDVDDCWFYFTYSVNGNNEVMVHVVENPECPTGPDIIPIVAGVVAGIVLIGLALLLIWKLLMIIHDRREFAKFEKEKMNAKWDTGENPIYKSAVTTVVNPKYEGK
As to the kind of experiment: VCAM-1/α4β1 integrin binding inhibitory activity evaluation test (Jurkat cells binding to VCAM-1/Fc). The format is cell-based. The settings on record: recombinant human VCAM-1/Fc. The procedure:
(1) VCAM-1/α4β1 Integrin Binding Inhibitory Activity Evaluation Test
Each test substance was measured in terms of an ability to inhibit the VCAM-1 binding of a human T cell line, namely, a cell line Jurkat, which is known to express α4β1 integrin.
A solution of recombinant human VCAM-1/Fc (R&D Systems, Inc.) (1 μg/mL) diluted with a buffer A (carbonate buffer, pH 9.6) was placed in an amount of 50 μL/well in a 96-well microtiter plate, followed by incubation at 4° C. overnight. After the plate was washed with PBS once, 150 μL/well of Block Ace (Snow Brand Milk Products Co., Ltd.) was added, followed by incubation at room temperature for 2 hours. After removal, the plate was washed with PBS once.
Then, 100 μL of the Jurkat cells (2×10^6 cells/mL) and 100 μL of the test substance at each of various concentrations diluted with a binding buffer (DMEM containing 40 mM HEPES, 0.2% BSA, and 4 mM MnCl2) were added to the plate coated with the VCAM-1/Fc (5×10^5 cells/well), followed by incubation at 30° C. for 15 to 60 minutes. After the cells were bound to the wells, the plate was washed with PBS to remove unbound cells. A buffer C (PBS containing 1.5% Triton X-100) was added in an amount 50 μL/well to the plate to lyse the bound Jurkat cells. After 30 μL of a substrate buffer (Promega, CytoTox 96 Non-Radioactive Cytotoxicity Assay) was added to 30 μL of the cell lysate, a reaction was allowed to proceed at room temperature in the dark for 30 minutes. After 30 μL of a stop solution (Promega, CytoTox 96 Non-Radioactive Cytotoxicity Assay) was added to each, and then an absorbance at 490 nm was measured using a plate reader. The absorbance obtained here represents a detection result of an activity of lactate dehydrogenase (LDH) eluted in the supernatant of each well, that is, the absorbance is proportional to the number of Jurkat cells bound to the VCAM-1 and thus remaining on the plate. The test was performed in duplicate. Provided that the absorbance of a well containing no test substance was 100%, a cell binding rate with the test substance at each of the various concentrations was figured out, and a concentration IC50 which brought about 50% binding inhibition was calculated.
The IC50 is the concentration that inhibits the measured activity by half. As for `Cc1cn(C)c(=O)n(-c2ccc(C[C@H](NC(=O)c3cc(F)c(NS(=O)(=O)c4ccc(NC(=O)C(C)(C)C)cc4)cc3F)C(=O)O)nc2)c1=O` [Compound A69], the IC50 stood at 13 µM. Then `Cn1ccc(=O)n(-c2ccc(C[C@H](NC(=O)c3cc(F)c(NS(=O)(=O)c4ccc(NC(=O)C(C)(C)C)cc4)cc3F)C(=O)O)cn2)c1=O` [Compound A53], with > 31.2 µM. Then `Cc1c(C)n(C)c(=O)n(-c2ccc(C[C@H](NC(=O)c3cc(F)c(NS(=O)(=O)c4ccc(NC(=O)C(C)(C)C)s4)cc3F)C(=O)O)cc2)c1=O` [Compound A10], with 0.4 µM; and `Cn1ccc(=O)n(-c2ccc(C[C@H](NC(=O)c3cc(F)c(NS(=O)(=O)c4ccc(NC(=O)C(C)(C)CO)cc4)cc3F)C(=O)O)cn2)c1=O` [Compound A62], with > 31.2 µM; and `Cn1ccc(=O)n(-c2ccc(C[C@H](NC(=O)c3cc(F)c(NS(=O)(=O)c4ccc(NC(=O)C5(C(F)(F)F)CC5)cc4)cc3F)C(=O)O)cn2)c1=O` [Compound A55], with > 31.2 µM. On to `Cc1c(C)n(C)c(=O)n(-c2ccc(C[C@H](NC(=O)c3cc(F)c(NS(=O)(=O)c4ccc(-n5ccc(C6CCOCC6)cc5=O)cc4)cc3F)C(=O)O)cc2)c1=O` [Compound A34], for which the 50% inhibitory concentration (IC50) turned out to be 3.6 µM. Then `Cn1c2c(c(=O)n(-c3ccc(C[C@H](NC(=O)c4cc(F)c(NS(=O)(=O)c5ccc(NC(=O)C(C)(C)C)cc5)cc4F)C(=O)O)cc3)c1=O)COCC2` [Compound A33], with 1 µM.

`Cc1c(C)n(C)c(=O)n(-c2ccc(C[C@H](NC(=O)c3cc(F)c(NS(=O)(=O)c4ccc(N(C)C(=O)C(C)(C)C)cc4)cc3F)C(=O)O)cc2)c1=O` [Compound A35]: the half-maximal inhibitory concentration (IC50) stood at 3.8 µM. Consider `Cn1c(=O)n(-c2ccc(C[C@H](NC(=O)c3cc(F)c(NS(=O)(=O)c4ccc(NC(=O)c5ccncc5)cc4)cc3F)C(=O)O)cc2)c(=O)c2ccncc21` [Compound A7], for which the half-inhibitory concentration (IC50) stood at 2 µM. Then `Cc1c(C)n(C)c(=O)n(-c2ccc(C[C@H](NC(=O)c3cc(F)c(NS(=O)(=O)c4ccc(NC(=O)C(C)(C)C)cn4)cc3F)C(=O)O)cc2)c1=O` [Compound A19], with 0.37 µM; and `Cc1c(C)n(C)c(=O)n(-c2ccc(C[C@H](NC(=O)c3cc(F)c(NS(=O)(=O)c4ccc(NC(=O)C5(O)CC5)cc4)cc3F)C(=O)O)cc2)c1=O` [Compound A22], with 0.83 µM.

`Cn1ccc(=O)n(-c2ccc(C[C@H](NC(=O)c3cc(F)c(NS(=O)(=O)c4ccc(NC(=O)C5(C#N)CC5)cc4)cc3F)C(=O)O)cn2)c1=O` [Compound A59]: the IC50 was > 31.2 µM. Then `Cn1ccc(=O)n(-c2ccc(C[C@H](NC(=O)c3cc(F)c(NS(=O)(=O)c4ccc(NC(=O)C5CCCC5)cc4)cc3F)C(=O)O)cn2)c1=O` [Compound A64], with > 31.2 µM. Then `Cn1c(=O)n(-c2ccc(C[C@H](NC(=O)c3cc(F)c(NS(=O)(=O)c4ccc(NC(=O)C5CCOCC5)cc4)cc3F)C(=O)O)cc2)c(=O)c2ccncc21` [Compound A14], with 0.55 µM.

Regarding `Cn1c(=O)n(-c2ccc(C[C@H](NC(=O)c3cc(F)c(NS(=O)(=O)c4ccc(NC(=O)C5(O)CC5)cc4)cc3F)C(=O)O)cc2)c(=O)c2ccncc21` [Compound A23], the IC50 was 0.82 µM. Then `Cc1c(C)n(C)c(=O)n(-c2ccc(C[C@H](NC(=O)c3cc(F)c(NS(=O)(=O)c4ccc(NC(=O)C(C)(C)CO)cc4)cc3F)C(=O)O)cc2)c1=O` [Compound A21], with 0.68 µM. On to `Cc1c(C)n(C)c(=O)n(-c2ccc(C[C@H](NC(=O)c3cc(F)c(NS(=O)(=O)c4ccc(NC(=O)C(C)(C)C)cc4)cc3F)C(=O)O)cc2)c1=O` [Compound A8], for which the IC50 came out at 1.6 µM. Then `Cn1ccc(=O)n(-c2ccc(C[C@H](NC(=O)c3cc(F)c(NS(=O)(=O)c4ccc(NC(=O)C(C)(C)C)cc4)cc3F)C(=O)O)nc2)c1=O` [Compound A70], with 38 µM.

As for `Cn1cnc2c1c(=O)n(-c1ccc(C[C@H](NC(=O)c3cc(F)c(NS(=O)(=O)c4ccc(NC(=O)C(C)(C)C)cc4)cc3F)C(=O)O)cc1)c(=O)n2C` [Compound A43], the IC50 is 1.2 µM. Then `Cn1c(=O)n(-c2ccc(C[C@H](NC(=O)c3cc(F)c(NS(=O)(=O)c4ccc(NC(=O)C5(C(F)(F)F)CC5)cc4)cc3F)C(=O)O)cc2)c(=O)c2ccncc21` [Compound A24], with 1.4 µM; and `Cc1cn(C)c(=O)n(-c2ccc(C[C@H](NC(=O)c3cc(F)c(NS(=O)(=O)c4ccc(NC(=O)C(C)(C)C(F)(F)F)cc4)cc3F)C(=O)O)cn2)c1=O` [Compound A58], with 14 µM.

Turning to `Cc1cn(C)c(=O)n(-c2ccc(C[C@H](NC(=O)c3cc(F)c(NS(=O)(=O)c4ccc(NC(=O)C(C)(C)CO)cc4)cc3F)C(=O)O)cn2)c1=O` [Compound A63], the 50% inhibitory concentration (IC50) was > 31.2 µM. Then `Cn1ccc(=O)n(-c2ccc(C[C@H](NC(=O)c3cc(F)c(NS(=O)(=O)c4ccc(NC(=O)C(C)(C)C)cc4)cc3F)C(=O)O)cc2)c1=O` [Compound A42], with 2.5 µM; and `Cn1c(C(F)(F)F)cc(=O)n(-c2ccc(C[C@H](NC(=O)c3cc(F)c(NS(=O)(=O)c4ccc(NC(=O)C(C)(C)C)cc4)cc3F)C(=O)O)cn2)c1=O` [Compound A66], with 19 µM; and `CCC(CC)C(=O)Nc1ccc(S(=O)(=O)Nc2cc(F)c(C(=O)N[C@@H](Cc3ccc(-n4c(=O)ccn(C)c4=O)nc3)C(=O)O)cc2F)cc1` [Compound A61], with > 31.2 µM. Then `Cc1cn(C)c(=O)n(-c2ccc(C[C@H](NC(=O)c3cc(F)c(NS(=O)(=O)c4ccc(NC(=O)C(C)(C)C)cc4)cc3F)C(=O)O)cn2)c1=O` [Compound A54], with 29 µM; and `Cc1cn(C)c(=O)n(-c2ccc(C[C@H](NC(=O)c3cc(F)c(NS(=O)(=O)c4ccc(NC(=O)C5(C(F)(F)F)CC5)cc4)cc3F)C(=O)O)cn2)c1=O` [Compound A56], with 19 µM; and `Cc1cc(=O)n(-c2ccc(C[C@H](NC(=O)c3cc(F)c(NS(=O)(=O)c4ccc(NC(=O)C(C)(C)C)cc4)cc3F)C(=O)O)cn2)c(=O)n1C` [Compound A45], with 10 µM. `Cc1cn(C)c(=O)n(-c2ccc(C[C@H](NC(=O)c3cc(F)c(NS(=O)(=O)c4ccc5c(NC(=O)C(C)(C)C)c[nH]c5c4)cc3F)C(=O)O)cn2)c1=O` [Compound A74]: the IC50 came to 7.4 µM.

As for `Cn1c(=O)n(-c2ccc(C[C@H](NC(=O)c3cc(F)c(NS(=O)(=O)c4ccc(NC(=O)C(C)(C)C)cn4)cc3F)C(=O)O)cn2)c(=O)c2ccncc21` [Compound A31], the IC50 worked out at 1.9 µM. Then `Cn1c(=O)n(-c2ccc(C[C@H](NC(=O)c3cc(F)c(NS(=O)(=O)c4ccc(NC(=O)C(C)(C)C)cc4)cc3F)C(=O)O)cn2)c(=O)c2ccncc21` [Compound A26], with 4.6 µM; and `Cc1c(C)n(C)c(=O)n(-c2ccc(C[C@H](NC(=O)c3cc(F)c(NS(=O)(=O)c4ccc(NC(=O)C(C)(C)C)nc4)cc3F)C(=O)O)cc2)c1=O` [Compound A25], with 2.3 µM; and `Cc1cn(C)c(=O)n(-c2ccc(C[C@H](NC(=O)c3cc(F)c(NS(=O)(=O)c4cc5cc(NC(=O)C(C)(C)C)ccc5[nH]4)cc3F)C(=O)O)cn2)c1=O` [Compound A76], with 25 µM. Then `Cn1c(=O)n(-c2ccc(C[C@H](NC(=O)c3cc(F)c(NS(=O)(=O)c4ccc(NC(=O)C(C)(C)C)s4)cc3F)C(=O)O)cc2)c(=O)c2ccncc21` [Compound A9], with 0.16 µM.

For the origin of these results see US10562898B2, “Substituted benzenesulfonamides as inhibitors of alpha-4 beta-7 integrin activity” (EA PHARMA CO., LTD., priority 2016, dated 2020).
